Test results: patent publication EP2932958A1, “COSMETIC AND PHARMACEUTICAL APPLICATIONS OF N-ACETYLHYDROXYPROLINE” (Beiersdorf AG, priority 2007, dated 2008)

How the values were obtained:
[1] = molecular target: T1, BSA (Bos taurus, UniProt P02769); assay: Inhibition of CML glycation of BSA with DHA, dot-blot (part B); type: biochemical, Bovine; conditions: BSA 1%, DHA 1%, 1 day at 50°C; series I 0.17 % and II 9.82 mM of inhibitor
Experimental: Samples (A-F) were incubated for 1 day at 50°C and analysed for CML-content using the dot-blot approach set forth above in A. The dot-blot results are shown in Figure 11.
(§1) The samples had the following composition: • A: only BSA (1%) • B: BSA (1%) with DHA (1%) • C: BSA (1%) with Hydroxyproline and DHA (1 %) • D: BSA (1%) with N-Acetylhydroxyproline (NAHP) and DHA (1%) • E: BSA (1%) with Proline and DHA (1%) • F: BSA (1%) with Acetylproline and DHA (1%)
(§2) Each sample (A-F) was tested twice (I+II) with the difference that I. was conducted with 0.17 % of each inhibitor (Proline, Hydroxyproline, Acetylproline or NAHP) and II. was conducted with 9.82 mM of each inhibitor.
The intensity of each dot was quantified. The results are represented in Figure 12.

[2] = molecular target: T1, BSA; assay: AGE-fluorescence of BSA incubated with DHA (part B, samples II); type: biochemical, Bovine; conditions: BSA 1%, DHA 1%
Experimental: as §1, §2
Samples A-F (II) were further tested regarding the inhibition of the formation of other AGEs (different from CML). To this end, the AGE-fluorescence at λex=370 nm and λem= 440 nm was measured. The wavelengths used are those proposed by Bellmunt et al., Lung 173 (1995), 177-85 and used by many laboratories.

[3] = molecular target: T1, BSA; assay: Inhibition of BSA-CML formation with glucose, dot-blot with CML-specific antibody (part A); type: biochemical, Bovine; conditions: BSA 1.035 %, glucose 1 M, 7 days at 50°C, various amounts of NAHP
Experimental: BSA samples of were incubated with glucose for 7 days at 50°C in the presence of various amounts of NAHP and thereafter analysed for their CML-content using a dot-blot approach. An antibody which is specific for the CML modifications of immobilised proteins (in this case BSA) on a nitrocellulose membrane was used to make the CML modifications visible. […] The stronger the intensity of each dot in the above series, the higher is the concentration of CML-modifications on the BSA. The control consists of BSA without glycation agent (glucose). Each single dot was quantified for its intensity leading to the results which are shown diagrammatically in Figure 10.
The concentration of BSA was 1.035 % (10.35 mg/ml) and the concentration of glucose in each sample was 1 M.

[4] = molecular target: T1, BSA; assay: BSA-Glucose Assay of AGE formation at pH 5 and pH 7 (part F); type: biochemical, Bovine; conditions: BSA with glucose, 7 days at 50°C
Experimental: As acetylated compounds result in a decrease in the pH, the effect of NAHP was compared at two different pH values (pH 5 and pH 7). As described in Section A, the BSA-Glucose Assay was used. To stabilize the pH the adjustment was performed after the addition of the inhibitor.
After incubation of BSA with glucose for 7 days at 50°C a significant increase in AGE fluorescence is detectable. An acidic environment (pH 5) results in a much less intensive AGE-formation in the BSA-Glucose Assay than a neutral, environment (pH 7).

[5] = test system: age spots (senile lentigo); assay: Lightening effect on undesired skin pigmentation (age spots); type: in vivo; conditions: after seven days
Excerpt: Undesired and uneven skin pigmentation such as, e.g., age spots (senile lentigo) are a major problem associated with the aging of skin and skin appendages. N-acetylhydroxyproline has an effect with respect to the lightening of age spots.

[6] = test system: Primary human fibroblasts; assay: CML formation in fibroblasts after glyoxal treatment (FACS, immunoblot, immunoprecipitation); type: cell-based; conditions: 200 µM glyoxal for 7 days
Experimental: To test the effect of CML-modifications on vimentin function cells were treated with glyoxal to induce CML-vimentin modifications in fibroblasts. Primary human fibroblasts were incubated with 200 µM glyoxal for 7 days to enhance CML formation^18,20,28. […] The higher rate of CML-vimentin formation leads to a predominant modification of vimentin in the linker region of the molecule.
Proteins from cell extracts (20 µg per lane) were separated by gel electrophoresis under denaturing conditions on 10% SDS-PAGE gels. Immunoblotting was performed following standard procedures using chemiluminescence methods. […] Signals were quantified using LumiAnalyst (Boehringer Mannheim, Germany). […]
Fibroblasts were incubated for 7 days with 200 µM glyoxal^18,20. […] After 3 washing steps with PBS the fluorescence was measured using FACSCanto (BD Biosciences, San Jose, USA) and analysed by the software BD FACSDiva 4.0.
Human fibroblasts were incubated for 7 days with 200 µM glyoxal^18,20 and tested for CML formation using FACS analysis as described above (a). Quantitative analysis of (a) is shown in panel (b, right columns) together with quantitative analysis of dot-blots as described in the legend to Fig.4 and the Methods section (b, left columns). […] Additionally, the two cell populations were lysed, vimentin was immunoprecipitated and analysed for CML-modification by SDS-page and immunoblotting. […]

[7] = test system: human fibroblasts; assay: Vimentin redistribution to a perinuclear aggregate after glyoxal treatment (immunofluorescence microscopy); type: cell-based
Experimental: To determine whether the loss of contractile capacity is the result of a CML-induced redistribution of vimentin, immunofluorescence microscopic analysis of fibroblasts with and without glyoxal treatment were employed. […] About 90% of the fibroblasts were affected after incubation for 7 days.
For immunostaining, cells were fixed in 3% paraformaldehyde for 30 minutes at room temperature, washed with PBS and permeabilized with 0.5% Triton X-100 for 5 minutes; after which the cells were blocked with 3% BSA for 30 minutes. Cells were then incubated with primary antibody in 1% BSA for 1 hour. […] Cells were then incubated for 1 hour with 1% BSA solution containing fluorescence-labelled secondary antibodies (AlexaFluor 488 chicken-anti-mouse IgG, AlexaFluor 594 donkey-anti-goat IgG, AlexaFluor 546 donkey-anti-goat IgG, Molecular Probes, Eugene, Oregon) at 1:1,000 to visualise the target protein and DAPI (Molecular Probes, Eugene, Oregon). After extensive washing with PBS fluorescence images were recorded on a fluorescence microscope (Olympus, Hamburg, Germany) with an attached […] camera. Confocal fluorescence images were recorded on LSM 510 Meta (Carl Zeiss, Jena, Germany). […]

[8] = test system: human fibroblasts; assay: Contraction capacity of fibroblasts in 3D free-floating collagen lattices; type: cell-based; conditions: glyoxal treated vs control fibroblasts, n=10, p=0.00056
Experimental: Further, normal fibroblasts were compared with fibroblasts with a higher CML-vimentin modification with respect to contractile capacities. The contractile capacity was determined using 3D free-floating collagen lattices^29,30.
100 mg Type I collagen (Sigma, St. Louis, USA) was dissolved at 4°C in 33.3 ml of 0.1% sterile acetic acid. 0.9 ml of 10x Hank's Buffer Salt Solution (Biochrom, Berlin, Germany) was added to 4.5 ml of this solution of collagen. 1.9 ml of 0.1% acetic acid was supplemented. NaOH was added dropwise to neutralise the solution. 1.5 x 10^5 fibroblasts were resuspended in 0.1 ml FCS and added to the solution for each ml of the gel. Casy Model TT (Schärfe System, Reutlingen, Germany) was used to count the fibroblasts and to control their viability. […] Diameters were measured at 0 hours and 24 hours. […]
Human fibroblasts were incubated for 7 days with 200 µM glyoxal^18,20 and tested for CML formation using FACS analysis as described above (a). Quantitative analysis of (a) is shown in panel (b, right columns) together with quantitative analysis of dot-blots as described in the legend to Fig.4 and the Methods section (b, left columns). […] Additionally, the two cell populations were lysed, vimentin was immunoprecipitated and analysed for CML-modification by SDS-page and immunoblotting. […] The contraction of these lattices was measured after 48h. […]

T1 sequence (P02769 25-607): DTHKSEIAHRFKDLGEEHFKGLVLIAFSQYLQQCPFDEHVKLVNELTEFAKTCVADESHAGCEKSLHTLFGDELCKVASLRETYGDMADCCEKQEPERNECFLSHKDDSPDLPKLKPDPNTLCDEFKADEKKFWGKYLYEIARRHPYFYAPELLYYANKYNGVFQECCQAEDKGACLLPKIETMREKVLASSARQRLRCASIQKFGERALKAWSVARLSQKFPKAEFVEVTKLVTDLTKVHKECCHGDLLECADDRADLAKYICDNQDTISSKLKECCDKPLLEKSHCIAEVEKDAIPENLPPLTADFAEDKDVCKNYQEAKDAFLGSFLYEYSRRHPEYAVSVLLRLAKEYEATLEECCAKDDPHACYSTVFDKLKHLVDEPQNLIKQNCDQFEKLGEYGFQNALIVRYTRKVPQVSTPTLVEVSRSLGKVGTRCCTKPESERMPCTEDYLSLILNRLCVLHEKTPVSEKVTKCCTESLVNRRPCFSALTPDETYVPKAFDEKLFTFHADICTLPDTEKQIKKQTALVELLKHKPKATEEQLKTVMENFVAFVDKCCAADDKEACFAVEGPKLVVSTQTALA

CC(=O)N1CCC[C@H]1C(=O)O [Acetylproline, reference compound]
inhibitory effect on the CML-glycation of BSA (dot-blot intensity) [1]: potent inhibitor of the CML-glycation, but to a lesser extent than NAHP

CC(=O)N1C[C@H](O)C[C@H]1C(=O)O [NAHP, N-acetylhydroxyproline]
formation of fluorescent AGEs (AGE-fluorescence at λex=370 nm and λem= 440 nm) ([2]; 9.82 mM inhibitor (samples II)): inhibited
brownish color of AGEs in the solution ([2]; samples II, digital picture): absent
CML glycation of BSA (dot-blot intensity) [3]: protective effect on BSA, preventing the CML glycation of this protein
AGE-formation (AGE fluorescence) at pH 5 ([4]; pH 5): reduced AGE-formation
AGE-formation (AGE fluorescence) at pH 7 ([4]; pH 7): reduced AGE-formation
brightness of the treated age spot [5]: increase in brightness
inhibitory effect on the CML-glycation of BSA (dot-blot intensity) [1]: strongest inhibitory effect

O=CC=O [glyoxal]
CML as measured by FACS and immunoblot analysis [6]: massive increase of CML
fibroblasts showing perinuclear vimentin aggregate formation ([7]; 200 µM glyoxal for 2 days): About 70%
fibroblasts affected by vimentin aggregate formation ([7]; 200 µM glyoxal, incubation for 7 days): About 90%
contractile capacity of fibroblasts in 3D collagen lattices [8]: significantly reduced
